These results are taken from article PMC3889466 (Journal of medicinal chemistry, 2013).

The subject of data set [1] is Influenza A/H1N1 (A/PR/8/34). The class given is cell-based, influenza A virus.
Data set [2] concerns MDCK cells.
Data set [3] has as its system MDCK cells. This is another data set of the same source.
Another data set has as its system A/HK/7/87. The data set is described as follows: microbe, parasite or virus in culture. The class given is cell-based, influenza A virus. Conditions: for EC90: Influenza A virus, MDCK, 24 h, read-out: Activity against A/HK/7/87 EC90.
Another data set concerns the target A/M2 wt (Influenza A virus, UniProt P0DOF5). Conditions: cited from earlier work.
[4] abbreviates: read-out: Antiviral EC50 Influenza A/H1N1 CPE.
Where [5] appears, read: read-out: Antiviral EC50 Influenza A/H1N1 MTS.
Where [6] appears, read: minimal alterations in cell morphology after 24 hr incubation.
The mark [7] stands for this setting: MDCK, minimal alterations in cell morphology after 72 hr.

The structures appear in SMILES notation. Where two headings read alike, the source gives them in different places. Some results are limits rather than exact numbers.

A/M2 wt, sequence (P0DOF5 whole entry): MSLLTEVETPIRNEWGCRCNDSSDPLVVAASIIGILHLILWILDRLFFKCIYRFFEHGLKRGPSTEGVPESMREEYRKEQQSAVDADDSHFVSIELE

Take `CN1CC23CC4CC2(CC4C3)C1.Cl` [Compound 15b, 3-Methyl-3-azatetracyclo[5.2.1.1^5,8.0^1,5]undecane hydrochloride]: the EC50 in data set [1] (setting [4]) and in data set [1] (setting [5]) was over 100 µM throughout. For the same molecule, the “Cytotoxicity at 72 hr MCC (minimum cytotoxic concentration)” value (“Cytotoxicity at 72 hr MCC” for short) with MDCK cells [2] (dog) was at least 100 µM.
As for `CN1CC23CC4(C)CC2(C1)CC4(C)C3.Cl` [Compound 15a, 3,7,8-Trimethyl-3-azatetracyclo[5.2.1.1^5,8.0^1,5]undecane hydrochloride], the EC50 in data set [1] (setting [4]) and in data set [1] (setting [5]) was over 100 µM throughout. Also, the “Cytotoxicity at 72 hr MCC” value with MDCK cells [2] (dog) was at least 20 µM.
For `C1CCC23CC45CNCC4(CC2(C1)C5)C3.O=C(O)C(O)C(O)C(=O)O` [Compound 14d, 12-Azapentacyclo[6.5.1.1^3,10.0^1,10.0^3,8]pentadecane (2R,3R)-tartrate], the “Cytotoxicity at 24 hr MCC” value in the data set on MDCK cells [3] (setting [6]) is over 50 µM. Besides, the EC50 in data set [1] (setting [4]) and in data set [1] (setting [5]) was over 100 µM in each case. Besides, the “Cytotoxicity at 72 hr MCC” value in the data set on MDCK cells [2] (setting [7]) came out at 4.0 µM. In addition, the “Activity against A/HK/7/87 EC99” value in the data set with A/HK/7/87 was over 10 µM. Moreover, in the data set on A/HK/7/87, the EC90 is under 1 µM.
On to `NC12CC3CC(CC(C3)C1)C2` [Amantadine, amantadine, reference compound], for which the “Activity against A/HK/7/87 EC99” value with A/HK/7/87 (listed as Amt) is recorded as ~ 1 μM.
In the case of `C1=CC2C3C4C5C=CC4C24CNCC54C13` [Compound 10], the “Activity against the wt A/M2 channel (in words)” value (shortened to “Activity … (in words)”) at A/M2 wt is on record as “promising activity”.
On to `Cl.N=C(N)N1CC23CC45CCCCC4(C2)CC3(C1)C5` [Compound 16d, 12-Amidino-12-azapentacyclo[6.5.1.1^3,10.0^1,10.0^3,8]pentadecane hydrochloride], for which the “Cytotoxicity at 24 hr MCC” value in the data set on MDCK cells [3] (dog) is at least 10 µM. Moreover, the EC50 in data set [1] (setting [4]) and in data set [1] (setting [5]) was over 100 µM each time. In addition, the “Cytotoxicity at 72 hr MCC” value in the data set on MDCK cells [2] (dog) amounted to 4.0 µM. In the data set on A/HK/7/87, the “Activity against A/HK/7/87 EC99” value is over 2 µM. In addition, the EC90 with A/HK/7/87 was under 1 µM.
On to `CC12CC34CN(C(=N)N)CC3(C1)CC2(C)C4.Cl` [Compound 16a, 3-Amidino-7,8-dimethyl-3-azatetracyclo[5.2.1.1^5,8.0^1,5]undecane hydrochloride], for which the “Cytotoxicity at 24 hr MCC” value in the data set on MDCK cells [3] (dog) was over 50 µM. In data set [1] (setting [4]), the EC50 was over 100 µM. Besides, the EC50 in data set [1] (setting [5]) is over 100 µM. For the same molecule, the “Cytotoxicity at 72 hr MCC” value in the data set on MDCK cells [2] (dog) was 4 µM. For the same molecule, in the data set on A/HK/7/87, the “Activity against A/HK/7/87 EC99” value is 0.79 µM and the EC90 is under 1 µM.
As to `C1NCC23CC4CC12CC4C3.Cl` [Compound 14b, 3-azatetracyclo[5.2.1.1^5,8.0^1,5]undecane hydrochloride], the EC50 in data set [1] (setting [4]) and in data set [1] (setting [5]) was over 100 µM each time. Besides, the “Cytotoxicity at 72 hr MCC” value with MDCK cells [2] (dog) was 100 µM.
In the case of `Cl.N=C(N)N1CC23CC4CC2(CC4C3)C1` [Compound 16b, 3-Amidino-3-azatetracyclo[5.2.1.1^5,8.0^1,5]undecane hydrochloride], the “Cytotoxicity at 24 hr MCC” value in the data set on MDCK cells [3] (dog) was over 50 µM. Also, the EC50 in data set [1] (setting [4]) and in data set [1] (setting [5]) was over 50 µM each time. Moreover, the “Activity against A/HK/7/87 EC99” value with A/HK/7/87 was at least 38 µM.
On to `CC12CC34CNCC3(C1)CC2(C)C4.Cl` [Compound 14a, 7,8-Dimethyl-3-azatetracyclo[5.2.1.1^5,8.0^1,5]undecane hydrochloride], for which the EC50 in data set [1] (setting [4]) and in data set [1] (setting [5]) was over 100 µM each time. For the same molecule, the “Cytotoxicity at 72 hr MCC” value in the data set with MDCK cells [2] (dog) is 100 µM.
For the molecule `C1C2C1C1C3C4C5C6CC6C4C14CNCC54C23` (centres unmarked) [Compound 11], on A/M2 wt, the “Activity … (in words)” value is “promising activity”.
On to `CC(N)C12CC3CC(CC(C3)C1)C2` (centres unmarked) [Rimantadine, rimantadine, reference compound], for which, in the data set with MDCK cells [3] (setting [6]), the “Cytotoxicity at 24 hr MCC” value is at least 500 µM. The “Cytotoxicity at 72 hr MCC” value in the data set with MDCK cells [2] (setting [7]) amounted to 500 µM. Also, the “Activity against A/HK/7/87 EC99” value with A/HK/7/87 was over 4 µM.
On to `NC(=O)c1ncn([C@@H]2O[C@H](CO)[C@@H](O)[C@H]2O)n1` [Ribavirin, reference compound], for which the “Cytotoxicity at 24 hr MCC” value in the data set with MDCK cells [3] (dog) was over 100 µM. In the data set with A/HK/7/87, the “Activity against A/HK/7/87 EC99” value amounted to 11 µM.
With `NCC12C3CCC4C3C3C(CCC31)C42` [Compound 9], at A/M2 wt, the “Activity … (in words)” value was “did not inhibit”.
For the molecule `NC12C3CCC4C3C3C(CCC31)C42` [Compound 8], the “Activity … (in words)” value on A/M2 wt is given as “did not inhibit”.
